The target in assay [1] is Dual specificity protein phosphatase 3 (Homo sapiens, UniProt P51452). As to the kind of experiment: VHR phosphatase inhibition, dose response, selectivity assay for STEP inhibitor project, biochemical (AID 602374). In kind it is functional. The following applies: read-out: IC50_Mean.
Assay [2] relates to HEK293. The assay is described as follows: cells. In kind it is functional, cell-based. The settings on record: Homo sapiens.
Assay [3] has as its target Nucleotide-binding oligomerization domain-containing protein 2 (Homo sapiens, UniProt Q9HC29). As to the kind of experiment: inhibition of NOD2-driven NF-kB reporter – cell-based, luminescence, uHTS, HEK293 (AID 1566). Type of assay: functional.
The test system of assay [4] is HEK293. As to the kind of experiment: inhibition of NOD1-driven NF-kB reporter – cell-based, luminescence, uHTS, primary screen (AID 1578). In kind it is functional. The following applies: Homo sapiens.
The target in the next assay is Caspase-8 (Homo sapiens, UniProt Q14790). As to the kind of experiment: inhibitors of purified CASP8 protease – biochemical, Z-IETD-R110 fluorescence, cherry-picked samples, selectivity assay for caspase-6 inhibitor project, dose response (AID 743294).
Chain of Caspase-8 (Q14790 217-374 limits assumed): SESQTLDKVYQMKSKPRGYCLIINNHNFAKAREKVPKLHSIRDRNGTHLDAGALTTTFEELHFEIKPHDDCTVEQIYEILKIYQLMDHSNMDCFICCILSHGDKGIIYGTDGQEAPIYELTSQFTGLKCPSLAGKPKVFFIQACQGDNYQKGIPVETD
Chain of Caspase-8 (Q14790 385-479 limits assumed): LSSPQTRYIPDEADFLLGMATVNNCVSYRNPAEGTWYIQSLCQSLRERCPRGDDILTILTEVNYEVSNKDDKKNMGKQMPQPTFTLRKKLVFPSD
The test system of assay [5] is HEK293. As to the kind of experiment: NOD2 signaling inhibitors in MDP-stimulated cells, cell-based, uHTS, luminescence (AID 2001). The following applies: Homo sapiens. In kind it is functional.
For assay [6], the target named is T1, Low molecular weight phosphotyrosine protein phosphatase (Homo sapiens, UniProt P24666).
T1 sequence (P24666 whole entry): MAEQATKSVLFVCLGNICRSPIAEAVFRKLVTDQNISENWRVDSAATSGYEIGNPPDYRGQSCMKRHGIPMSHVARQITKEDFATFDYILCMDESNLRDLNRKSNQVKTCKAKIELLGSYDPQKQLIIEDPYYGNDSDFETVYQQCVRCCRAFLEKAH
In kind it is functional. The following applies: read-out: IC50_Mean.

The target in assay [7] is T2, Small ubiquitin-related modifier 1 (Homo sapiens, UniProt P63165). As to the kind of experiment: SUMO1 protein-protein binding blockers, potency – biochemical, FRET, dose response (AID 624383). The following applies: read-out: IC50_Mean. Type of assay: functional.
T2 sequence (P63165 whole entry): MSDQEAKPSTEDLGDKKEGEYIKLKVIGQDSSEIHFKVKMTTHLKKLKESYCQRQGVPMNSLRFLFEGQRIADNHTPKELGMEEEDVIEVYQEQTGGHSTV
Assay [8] has as its target T2, Small ubiquitin-related modifier 1. As to the kind of experiment: SUMO1 protein interaction blockers, potency – biochemical, fluorescence polarization, uHTS hits, dose response (AID 624382). In kind it is functional. The settings on record: read-out: IC50_Mean. (Fluorescence polarisation rises when a labelled molecule tumbles more slowly, as on binding a larger partner.)

Assay [9] has as its system HEK293. As to the kind of experiment: cells. In kind it is functional, cell-based. The following applies: Homo sapiens. This is another data set of the same source.
In assay [10] the target is T3, Carboxy-terminal domain RNA polymerase II polypeptide A small phosphatase 1 (Homo sapiens, UniProt Q9GZU7).
T3 sequence (Q9GZU7 whole entry): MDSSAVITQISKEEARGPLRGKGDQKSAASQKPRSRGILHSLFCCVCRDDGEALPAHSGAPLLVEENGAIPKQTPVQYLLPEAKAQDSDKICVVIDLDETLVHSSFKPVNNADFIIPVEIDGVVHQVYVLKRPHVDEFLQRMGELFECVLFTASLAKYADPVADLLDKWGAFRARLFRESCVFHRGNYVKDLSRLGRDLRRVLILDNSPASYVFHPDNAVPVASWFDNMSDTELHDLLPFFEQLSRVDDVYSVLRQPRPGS
As to the kind of experiment: CTDSP1 inhibitors, concentration-response, biochemical, absorbance readout, ultra-high-throughput screen actives (AID 540297). In kind it is functional.

For assay [11], the target named is T1, Low molecular weight phosphotyrosine protein phosphatase. Type of assay: functional. The following applies: read-out: IC50_Mean. The source holds these as a separate data set.
Another assay has as its target T4, Caspase-6 (Homo sapiens, UniProt P55212).
T4 sequence (P55212 whole entry): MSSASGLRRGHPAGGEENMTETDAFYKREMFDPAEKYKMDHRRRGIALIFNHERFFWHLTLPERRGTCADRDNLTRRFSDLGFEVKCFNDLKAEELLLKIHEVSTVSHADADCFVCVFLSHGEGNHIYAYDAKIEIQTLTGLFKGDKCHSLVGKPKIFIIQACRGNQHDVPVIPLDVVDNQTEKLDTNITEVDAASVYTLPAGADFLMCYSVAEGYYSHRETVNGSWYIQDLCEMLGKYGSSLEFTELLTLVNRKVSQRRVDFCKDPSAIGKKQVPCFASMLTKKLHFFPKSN
As to the kind of experiment: inhibition of CASP6 peptide cleavage – biochemical, VEID-R110 fluorescence, cherry-pick, dose response (AID 720632).

The target in assay [12] is T5, Tyrosine-protein phosphatase non-receptor type 11 (Homo sapiens, UniProt Q06124).
T5 sequence (Q06124 whole entry): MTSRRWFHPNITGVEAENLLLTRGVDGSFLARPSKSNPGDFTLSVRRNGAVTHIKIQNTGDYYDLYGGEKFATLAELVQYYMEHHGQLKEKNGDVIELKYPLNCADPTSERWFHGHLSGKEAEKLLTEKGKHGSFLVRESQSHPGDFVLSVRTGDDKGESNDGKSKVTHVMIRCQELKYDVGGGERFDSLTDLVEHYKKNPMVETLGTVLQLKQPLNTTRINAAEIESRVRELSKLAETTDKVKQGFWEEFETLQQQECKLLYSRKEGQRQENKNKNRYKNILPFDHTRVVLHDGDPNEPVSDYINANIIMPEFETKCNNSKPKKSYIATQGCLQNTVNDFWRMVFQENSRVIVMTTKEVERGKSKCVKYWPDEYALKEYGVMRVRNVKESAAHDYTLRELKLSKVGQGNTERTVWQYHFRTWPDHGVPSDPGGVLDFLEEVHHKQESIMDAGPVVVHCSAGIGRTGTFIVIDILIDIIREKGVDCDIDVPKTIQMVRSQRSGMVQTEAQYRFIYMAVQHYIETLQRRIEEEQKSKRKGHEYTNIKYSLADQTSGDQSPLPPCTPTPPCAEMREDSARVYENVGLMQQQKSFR
As to the kind of experiment: PTPN11 enzyme inhibitors – biochemical, selectivity assay for STEP inhibitor project, dose response (AID 602367). The following applies: read-out: IC50_Mean. In kind it is functional.

The target in assay [13] is T6, Tyrosine-protein phosphatase non-receptor type 5 (Homo sapiens, UniProt P54829).
T6 sequence (P54829 whole entry): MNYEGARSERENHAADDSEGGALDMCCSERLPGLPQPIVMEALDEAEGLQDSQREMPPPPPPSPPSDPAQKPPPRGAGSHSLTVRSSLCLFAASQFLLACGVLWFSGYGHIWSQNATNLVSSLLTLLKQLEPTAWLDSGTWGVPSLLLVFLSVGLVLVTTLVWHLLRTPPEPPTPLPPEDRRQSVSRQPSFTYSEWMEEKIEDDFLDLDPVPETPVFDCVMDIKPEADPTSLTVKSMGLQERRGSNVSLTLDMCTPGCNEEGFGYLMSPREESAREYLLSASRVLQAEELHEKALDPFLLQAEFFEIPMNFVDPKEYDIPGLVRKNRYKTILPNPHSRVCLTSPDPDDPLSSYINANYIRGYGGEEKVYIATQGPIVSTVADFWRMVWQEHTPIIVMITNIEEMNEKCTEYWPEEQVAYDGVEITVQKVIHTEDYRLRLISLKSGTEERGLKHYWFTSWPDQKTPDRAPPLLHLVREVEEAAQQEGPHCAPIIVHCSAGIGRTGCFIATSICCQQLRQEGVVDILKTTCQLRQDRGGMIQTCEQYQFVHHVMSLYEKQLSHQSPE
As to the kind of experiment: PTPN5 enzyme inhibition – biochemical, fluorescence intensity, uHTS hits, confirmation (AID 602372). Type of assay: functional. The following applies: read-out: IC50_Mean.

Assay [14] addresses T7, Probable nicotinate-nucleotide adenylyltransferase (Staphylococcus aureus (strain N315), UniProt P65502). In kind it is functional, Staphylococcus aureus subsp. aureus N315. The following applies: read-out: IC50_Mean.
Assay [15] concerns the target T7, Probable nicotinate-nucleotide adenylyltransferase. Type of assay: functional, Staphylococcus aureus subsp. aureus N315.

Activity calls are given as the source filed them. Bounds are passed on as bounds.

T7 sequence (P65502 whole entry): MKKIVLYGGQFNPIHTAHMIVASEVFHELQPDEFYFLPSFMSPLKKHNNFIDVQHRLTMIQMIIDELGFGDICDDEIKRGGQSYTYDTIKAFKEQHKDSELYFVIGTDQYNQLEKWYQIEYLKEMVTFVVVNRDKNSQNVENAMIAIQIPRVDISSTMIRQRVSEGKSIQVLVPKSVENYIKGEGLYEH
Chain of Dual specificity protein phosphatase 3 (P51452 whole entry): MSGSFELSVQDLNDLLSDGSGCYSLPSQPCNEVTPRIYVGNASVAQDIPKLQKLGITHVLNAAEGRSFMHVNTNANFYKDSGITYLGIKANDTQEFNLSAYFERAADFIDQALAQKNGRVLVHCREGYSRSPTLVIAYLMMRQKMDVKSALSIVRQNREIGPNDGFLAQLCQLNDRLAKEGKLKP
Chain of Nucleotide-binding oligomerization domain-containing protein 2 (Q9HC29 whole entry, the tested form may be a part): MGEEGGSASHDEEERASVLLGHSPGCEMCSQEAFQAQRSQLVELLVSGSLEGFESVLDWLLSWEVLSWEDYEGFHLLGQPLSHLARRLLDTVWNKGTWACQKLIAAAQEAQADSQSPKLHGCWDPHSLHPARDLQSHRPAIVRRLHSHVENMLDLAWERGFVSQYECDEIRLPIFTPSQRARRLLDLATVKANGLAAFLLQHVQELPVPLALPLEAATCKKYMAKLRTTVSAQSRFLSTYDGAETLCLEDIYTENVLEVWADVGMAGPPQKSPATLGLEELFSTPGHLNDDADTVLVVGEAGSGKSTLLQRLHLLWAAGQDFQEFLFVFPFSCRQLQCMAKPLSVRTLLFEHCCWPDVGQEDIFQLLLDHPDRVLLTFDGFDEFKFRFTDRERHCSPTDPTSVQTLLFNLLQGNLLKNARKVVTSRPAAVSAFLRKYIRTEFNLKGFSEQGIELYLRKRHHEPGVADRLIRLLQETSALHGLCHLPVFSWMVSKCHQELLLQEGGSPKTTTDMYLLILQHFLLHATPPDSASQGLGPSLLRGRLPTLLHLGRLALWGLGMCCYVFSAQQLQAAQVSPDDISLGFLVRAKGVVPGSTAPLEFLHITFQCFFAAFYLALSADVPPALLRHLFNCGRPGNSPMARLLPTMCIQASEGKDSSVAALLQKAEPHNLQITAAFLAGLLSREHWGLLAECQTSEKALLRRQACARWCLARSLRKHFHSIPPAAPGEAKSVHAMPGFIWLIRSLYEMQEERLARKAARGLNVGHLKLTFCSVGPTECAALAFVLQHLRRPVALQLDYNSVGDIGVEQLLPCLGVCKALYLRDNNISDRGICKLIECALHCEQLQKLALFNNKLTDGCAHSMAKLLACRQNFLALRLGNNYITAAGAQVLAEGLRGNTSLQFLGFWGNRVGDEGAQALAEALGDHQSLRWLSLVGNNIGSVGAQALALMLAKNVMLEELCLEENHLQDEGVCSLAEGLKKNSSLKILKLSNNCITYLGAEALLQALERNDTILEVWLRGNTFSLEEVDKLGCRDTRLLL

In general, EC50 refers to the concentration at which the effect is half-maximal. By AC50 is commonly meant the concentration giving half of the maximal activity seen. In the case of `Cc1c(CCC(=O)O)c(=O)oc2c(C)c(OCc3ccccc3Cl)ccc12`, the IC50 in assay [1] is 1.56 µM (active); with HEK293 [2], 9.68 µM (active); in the assay on HEK293 [5], > 20 µM (inactive); in assay [6], 6.36 µM (active); in [7], 9.18 µM (active); in assay [8], > 66.6 µM (inactive). Besides, the IC50 in the assay on HEK293 [9] was > 20 µM (inactive); in assay [10] it was 1.99 µM (active); in assay [11], 4.25 µM (active); in assay [12], 1.55 µM (active); in assay [13], 2.94 µM (active). Besides, the EC50 in assay [3] was 2.94 µM (active); in the assay on HEK293 [4], > 20 µM (inactive). Besides, the AC50 at Caspase-8 was > 70 µM (inactive); on Caspase-6, 1.38 µM (active).
In the case of `Cc1ccc(-c2cc(C(=O)Nc3ccc(S(=O)(=O)Nc4onc(C)c4C)cc3)c3ccccc3n2)cc1`, the IC50 was 20.1 µM (active) in assay [14] and 5.56 µM (active) in [15].

Source of the values: ChEMBL document CHEMBL1201862, “PubChem BioAssay data set” (2004).
